Values of other authors, collected in patent US8148574B2, “Method for producing 5-aminolevulinic acid hydrochloride” (Cosmo Oil Co., Ltd., priority 2005, dated 2012).

Settings: in water, at room temperature; depends on pH, temperature and coexisting solute

- solubility: ≥ 3000 mM
Structure (SMILES): Cl.NCC(=O)CCC(=O)O [5-aminolevulinic acid hydrochloride]
